Data published in patent publication US20250076320A1, “METHOD AND PROGRAM FOR DETECTING ADMINISTERED DRUG, AND DEVICE THEREFOR” (A&T CORPORATION, priority 2023, published 2025).

Tested on: prothrombin time (blood coagulation, extrinsic pathway)
Assay: Clot waveform analysis with dry PT reagent containing magnetic particles on the CG02N blood coagulation analyzer
Settings: samples receiving administration of rivaroxaban, PT-INR 2.0 or higher (22 samples); inclination from maximal movement level of magnetic particles to 5% attenuation; 25 μl sample; samples not receiving DOAC: −1219.8
From the text: When measurement is initiated, apparatus CG02N turns electromagnets at the bottom of the reaction cell on and off, and allows magnetic particles to move in the reaction cell. CG02N observes the movement of the magnetic particles as the amount of change in the scattered light, and analyzes the change with the elapse of time to determine clotting time. When the CG02N analyzer is used, the change in the movement signal of the magnetic particles over time is inversely correlated to the change in the viscosity of the dry reagent. As the clotting reaction advances, the viscosity in the reaction cell increases, and the movement of the magnetic particles becomes slower. The clot waveform is analyzed by determining a difference between the waveform value (scattered light) after a given period of time from the point when an electromagnet is turned on and the waveform value (scattered light) after a given period of time from the point when electromagnet is turned off. Differences in the waveform values are plotted with the elapse of time, and a point at which the waveform value is lowered by a given percentage from the maximal value (also referred to as “peak TOP”) is designated as the end point. The period from the peak TOP to the end point is measured to obtain the measured value (seconds). The term “clotting time” used herein refers to the period from the peak TOP to the end point. […]

Structure (SMILES): O=C(NC[C@H]1CN(c2ccc(N3CCOCC3=O)cc2)C(=O)O1)c1ccc(Cl)s1 [rivaroxaban]
- Slope of clot waveform, Mean: −805.9
